{"source": "EPA's ToxValDB 9.5", "key": {"Oryctolagus sp.": {"tested_on": "Oryctolagus sp.", "conditions": "acute, dermal"}, "Rattus norvegicus [1]": {"tested_on": "Rattus norvegicus", "conditions": "for LC50 / LD50: acute"}, "Mus musculus": {"tested_on": "Mus musculus", "conditions": "oral"}, "Rattus norvegicus [2]": {"tested_on": "Rattus norvegicus", "conditions": "oral, gavage"}, "Rattus norvegicus [3]": {"tested_on": "Rattus norvegicus", "conditions": "Hershberger, oral, gavage"}, "[4]": {"conditions": "short-term, duration: 28 days, oral, diet, Sprague-Dawley"}, "[5]": {"conditions": "developmental, duration: 1 days, gavage, M/F, NMRI, Developmental: Altered spontaneous behavior and habituation in adults exposed as neonates"}, "[6]": {"conditions": "developmental, duration: 42 days, gavage, M/F, CD1, Developmental: Decrease in number of pups per litter with no change in pup to implantation site ratio"}, "[7]": {"conditions": "developmental, duration: 16 days, F, Wistar, Developmental: 20% decrease in serum T4 levels in pups on PND 16/17 + Endocrine: 20-30% decreases in serum T4 levels in dams"}, "[8]": {"conditions": "reproduction developmental, duration: 56 days, M, Sprague-Dawley, Endocrine: Hypertrophy and hyperplasia of thyroid follicular cells in males"}, "[9]": {"conditions": "reproduction developmental, duration: 56 days, M, Sprague-Dawley, Renal: 31% increase in BUN in males"}, "[10]": {"conditions": "developmental, duration: 14 days, gavage, M, NMRI, developmental"}, "[11]": {"conditions": "duration: 10 days, Wistar, active + Negative + Antiandrogenic + anti-androgenic"}, "[12]": {"conditions": "duration: 5 days, Sprague-Dawley, active + Antiandrogenic + anti-androgenic + PPS delayed by 5 days / single dose tested (liver wt?)"}}, "note": "Where “and” joins values, the source holds several entries; their conditions need not be identical. Equal values may be shown once."}
{"smiles": "CCCCCCCCCc1cc2ccccc2c(S(=O)(=O)[O-])c1CCCCCCCCC.CCCCCCCCCc1cc2ccccc2c(S(=O)(=O)[O-])c1CCCCCCCCC.[Ca+2]", "note": "[Calcium bis(dinonylnaphthalenesulphonate)]", "values": [{"measurement": "LD50", "setting": "Oryctolagus sp.; New Zealand", "value": "> 20000", "unit": "mg/kg"}, {"measurement": "LC50", "setting": "Rattus norvegicus [1]; Inhalation, Wistar", "value": "> 18", "unit": "µg/mL"}, {"measurement": "LD50", "setting": "Rattus norvegicus [1]; oral, gavage, Sprague-Dawley", "value": "> 5000", "unit": "mg/kg"}]}
{"smiles": "CCOP(=S)(S)OCC", "note": "[Diethyl dithiophosphoric acid]", "values": [{"measurement": "LD50", "setting": "Oryctolagus sp.; New Zealand", "value": "> 2000", "unit": "mg/kg"}, {"measurement": "LC50", "setting": "Rattus norvegicus [1]; inhalation", "value": 1640, "unit": "mg/m3"}, {"measurement": "LD50", "setting": "Rattus norvegicus [1]; oral", "value": 4510, "unit": "mg/kg"}]}
{"smiles": "C=CC(C)CCC=C(C)C", "note": "(stereo unspecified) [Dihydromyrcene]", "values": [{"measurement": "LD50", "setting": "Oryctolagus sp.; New Zealand", "value": "> 5000", "unit": "mg/kg"}, {"measurement": "LD50", "setting": "Rattus norvegicus [1]; oral, Wistar", "value": "> 5000", "unit": "mg/kg"}, {"measurement": "LD50", "setting": "Rattus norvegicus [1]; oral, gavage, Wistar", "value": "> 5000", "unit": "mg/kg"}]}
{"smiles": "O=C(O)CCCCCCCCCCC(=O)O", "note": "[Dodecanedioic acid]", "values": [{"measurement": "LD50", "setting": "Oryctolagus sp.; occlusive", "value": "> 6000", "unit": "mg/kg"}, {"measurement": "LC50", "setting": "Rattus norvegicus [1]; Inhalation", "value": "> 4.3", "unit": "µg/mL"}, {"measurement": "LD50", "setting": "Rattus norvegicus [1]; oral", "value": "> 3000", "unit": "mg/kg"}, {"measurement": "LD50", "setting": "Rattus norvegicus [1]; oral, gavage", "value": "> 17000", "unit": "mg/kg"}, {"measurement": "NOAEL", "setting": "Rattus norvegicus [1]; reproduction developmental, duration: 50 days, oral, gavage, CRL:CD BR", "value": 1000, "unit": "mg/kg-day"}]}
{"smiles": "O=C1OC(=O)C2CCCCC12", "note": "(stereo unspecified) [Hexahydrophthalic anhydride]", "values": [{"measurement": "LD50", "setting": "Oryctolagus sp.; New Zealand", "value": "> 2000", "unit": "mg/kg"}, {"measurement": "LC50", "setting": "Rattus norvegicus [1]; Inhalation, Sprague-Dawley", "value": "> 1100", "unit": "mg/m3"}, {"measurement": "LD50", "setting": "Rattus norvegicus [1]; oral", "value": 3310, "unit": "mg/kg"}, {"measurement": "LD50", "setting": "Rattus norvegicus [1]; oral, Sprague-Dawley", "value": "≥ 2700 mg/kg and ≤ 2800 mg/kg"}]}
{"smiles": "Cc1ccc(N(C)C)cc1", "note": "[N,N,4-Trimethylaniline]", "values": [{"measurement": "LD50", "setting": "Oryctolagus sp.; New Zealand", "value": "> 2000", "unit": "mg/kg"}, {"measurement": "LC50", "setting": "Rattus norvegicus [1]; inhalation, Sprague-Dawley", "value": 1.4, "unit": "µg/mL"}, {"measurement": "LD50", "setting": "Rattus norvegicus [1]; oral, Sprague-Dawley", "value": 1650, "unit": "mg/kg"}]}
{"smiles": "CC(C)CCC(C)Nc1ccc(Nc2ccccc2)cc1", "note": "(stereo unspecified) [N-(5-Methyl-2-hexyl)-N'-phenyl-p-phenylenediamine]", "values": [{"measurement": "LD50", "setting": "Oryctolagus sp.; occlusive, New Zealand", "value": "> 5010", "unit": "mg/kg"}, {"measurement": "LOAEL", "setting": "Rattus norvegicus [1]; [4]", "value": 750, "unit": "ppm"}, {"measurement": "NOAEL", "setting": "Rattus norvegicus [1]; [4]", "value": 500, "unit": "ppm"}]}
{"smiles": "CCCCCCCCCc1cc2ccccc2c(S(=O)(=O)[O-])c1CCCCCCCCC.CCCCCCCCCc1cc2ccccc2c(S(=O)(=O)[O-])c1CCCCCCCCC.[Ba+2]", "note": "[Naphthalenesulfonic acid, dinonyl-, barium salt]", "values": [{"measurement": "LD50", "setting": "Oryctolagus sp.; New Zealand", "value": "< 20000", "unit": "mg/kg"}, {"measurement": "LC50", "setting": "Rattus norvegicus [1]; Inhalation, Wistar", "value": "> 21", "unit": "µg/mL"}, {"measurement": "LD50", "setting": "Rattus norvegicus [1]; oral, diet, Sprague-Dawley", "value": "> 5000", "unit": "mg/kg"}, {"measurement": "LD50", "setting": "Rattus norvegicus [1]; oral, gavage, Wistar", "value": "> 5000", "unit": "mg/kg"}]}
{"smiles": "O=S(=O)(O)C(F)(F)C(F)(F)C(F)(F)C(F)(F)C(F)(F)C(F)(F)F", "note": "[Perfluorohexanesulfonic acid]", "values": [{"measurement": "LOAEL", "setting": "Mus musculus; [5]", "value": 9.2, "unit": "mg/kg-day"}, {"measurement": "NOAEL", "setting": "Mus musculus; [5]", "value": 6.1, "unit": "mg/kg-day"}, {"measurement": "NOAEL", "setting": "Mus musculus; developmental, duration: 42 days, gavage, M/F, CD1", "value": 3, "unit": "mg/kg-day"}, {"measurement": "LOAEL", "setting": "Mus musculus; [6]", "value": 1, "unit": "mg/kg-day"}, {"measurement": "NOAEL", "setting": "Mus musculus; [6]", "value": 0.3, "unit": "mg/kg-day"}, {"measurement": "NOAEL", "setting": "Mus musculus; developmental, duration: 42 days, gavage, M/F, CD1, Hepatic: Single cell necrosis and microvascular fatty changes at 3 mg/kg/day / centrilobular hepatocellular hypertrophy at ?0.3 mg/kg/day …", "value": 1, "unit": "mg/kg-day"}, {"measurement": "LOAEL", "setting": "Mus musculus; reproduction developmental, duration: 42 days, gavage, M/F, CD1, Hepatic: Single cell necrosis and microvascular fatty changes at 3 mg/kg/day / centrilobular hepatocellular hypertrophy at ?0.3 mg/kg/day …", "value": 3, "unit": "mg/kg-day"}, {"measurement": "NOAEL", "setting": "Mus musculus; short-term, duration: 7 days, gavage, M, Hepatic: Hepatocellular hypertrophy, steatosis, and increased hepatic triglyceride levels", "value": 10, "unit": "mg/kg-day"}, {"measurement": "NOAEL", "setting": "Mus musculus; subchronic, duration: 6 weeks, diet, M, Hepatic: Decreased plasma triglyceride, cholesterol, non-HDL cholesterol, and HDL cholesterol levels / increased hepatic triglyceride …", "value": 6, "unit": "mg/kg-day"}, {"measurement": "LOAEL", "setting": "Rattus norvegicus [2]; [7]", "value": 5, "unit": "mg/kg-day"}, {"measurement": "NOAEL", "setting": "Rattus norvegicus [2]; [7]", "value": 0.05, "unit": "mg/kg-day"}, {"measurement": "LOAEL", "setting": "Rattus norvegicus [2]; developmental, duration: 16 days, F, Wistar, Developmental: 40% decrease in serum T4 levels in pups on PND 16 + Endocrine: 60% decreases in serum T4 levels in dams", "value": 25, "unit": "mg/kg-day"}, {"measurement": "NOAEL", "setting": "Rattus norvegicus [2]; reproduction developmental, duration: 56 days, F, Sprague-Dawley, Hematological: 6% increase in prothrombin time in males at ?0.3 mg/kg/day / decreases in hemoglobin (4%), hematocrit (3%), and RBC levels (…", "value": 10, "unit": "mg/kg-day"}, {"measurement": "NOAEL", "setting": "Rattus norvegicus [2]; reproduction developmental, duration: 56 days, M/F, Sprague-Dawley, Hepatic: Increased liver weight / centrilobular hepatocellular hypertrophy in males at ?3 mg/kg/day + Immunotoxicological: No histological …", "value": 10, "unit": "mg/kg-day"}, {"measurement": "LOAEL", "setting": "Rattus norvegicus [2]; [8]", "value": 3, "unit": "mg/kg-day"}, {"measurement": "NOAEL", "setting": "Rattus norvegicus [2]; [8]", "value": 1, "unit": "mg/kg-day"}, {"measurement": "LOAEL", "setting": "Rattus norvegicus [2]; reproduction developmental, duration: 56 days, M, Sprague-Dawley, Hematological: 6% increase in prothrombin time in males at ?0.3 mg/kg/day / decreases in hemoglobin (4%), hematocrit (3%), and RBC levels (…", "value": 0.3, "unit": "mg/kg-day"}, {"measurement": "LOAEL", "setting": "Rattus norvegicus [2]; [9]", "value": 10, "unit": "mg/kg-day"}, {"measurement": "NOAEL", "setting": "Rattus norvegicus [2]; [9]", "value": 3, "unit": "mg/kg-day"}, {"measurement": "NOAEL", "setting": "Rattus norvegicus [2]; short-term, duration: 16 days, F, Wistar", "value": "45 mg/kg-day and 25 mg/kg-day"}]}
{"smiles": "O=c1nc([O-])n(Cl)c(=O)n1Cl.[Na+]", "note": "[Sodium dichloroisocyanurate]", "values": [{"measurement": "LD50", "setting": "Oryctolagus sp.", "value": "> 2000", "unit": "mg/kg"}]}
{"smiles": "Clc1ccc(C(c2ccc(Cl)cc2)C(Cl)Cl)cc1", "note": "[p,p'-DDD]", "values": [{"measurement": "LOAEL", "setting": "Mus musculus; [10]", "value": 0.5, "unit": "mg/kg-day"}, {"measurement": "LOEL", "setting": "Rattus norvegicus [3]; [11]", "value": 200, "unit": "mg/kg-day"}, {"measurement": "NOEL", "setting": "Rattus norvegicus [3]; [11]", "value": 40, "unit": "mg/kg-day"}]}
{"smiles": "ClC(Cl)=C(c1ccc(Cl)cc1)c1ccc(Cl)cc1", "note": "[p,p'-DDE]", "values": [{"measurement": "LOAEL", "setting": "Mus musculus; [10]", "value": 0.5, "unit": "mg/kg-day"}, {"measurement": "LOEL", "setting": "Rattus norvegicus [3]; [12]", "value": 100, "unit": "mg/kg-day"}, {"measurement": "NOEL", "setting": "Rattus norvegicus [3]; [12]", "value": 10, "unit": "mg/kg-day"}, {"measurement": "LOEL", "setting": "Rattus norvegicus [3]; duration: 7 days, Fischer 344, active + Antiandrogenic + anti-androgenic + PPS delayed by 5 days / single dose tested (liver wt?)", "value": "100 mg/kg-day and 200 mg/kg-day"}, {"measurement": "LOEL", "setting": "Rattus norvegicus [3]; duration: 7 days, Long-Evans, active + Antiandrogenic + anti-androgenic + PPS delayed by 5 days / single dose tested (liver wt?)", "value": 100, "unit": "mg/kg-day"}, {"measurement": "LOEL", "setting": "Rattus norvegicus [3]; duration: 7 days, Sprague-Dawley, active + Antiandrogenic + anti-androgenic + PPS delayed by 5 days / single dose tested (liver wt?)", "value": "100 mg/kg-day and 200 mg/kg-day"}, {"measurement": "LOEL", "setting": "Rattus norvegicus [3]; duration: 10 days, Sprague-Dawley, active + Negative + Antiandrogenic + anti-androgenic + PPS delayed by 5 days / single dose tested (liver wt?)", "value": 100, "unit": "mg/kg-day"}, {"measurement": "NOEL", "setting": "Rattus norvegicus [3]; duration: 10 days, Wistar, active + Antiandrogenic + anti-androgenic + PPS delayed by 5 days / single dose tested (liver wt?)", "value": "16 mg/kg-day and 30 mg/kg-day"}, {"measurement": "NOEL", "setting": "Rattus norvegicus [3]; duration: 10 days, wistar, active + Antiandrogenic + anti-androgenic + PPS delayed by 5 days / single dose tested (liver wt?)", "value": "10 mg/kg-day and 16 mg/kg-day and 30 mg/kg-day"}]}
